In patent US4939138A, “2- and 3-aminomethyl-6-arylcarbonyl-2,3-dihydropyrrolo(1,2,3-DE)-1,4-benzoxazin es” (Sterling Drug Inc., priority 1989, dated 1990):

Columns and labels:
mouse vas deferens = mouse vas deferens adrenergic transmission test (MVD); conditions: for IC50: concentration producing 50% of the maximum response; for MVD percent inhibition: 10 μM
Excerpt: (§1) The test procedures used to determine the analgesic activities of the compounds have been described in detail in the prior art and are as follows: The acetylcholine-induced abdominal constriction test, which is a primary analgesic screening test designed to measure the ability of a test agent to suppress acetylcholine-induced abdominal constriction in mice, described by Collier et al., Brit. J. Pharmacol. Chemotherap. 32, 295 (1968); a modification of the anti-bradykinin test, which is also a primary analgesic screening procedure, described by Berkowitz et al., J. Pharmacol. Exptl Therap. 177, 500-508 (1971), Blane et al., J. Pharm. Pharmacol 19, 367-373 (1967), Botha et al., Eur. J. Pharmacol. 6, 312-321 (1969) and Deffenu et al., J. Pharm. Pharmacol. 18, 135 (1966); the rat paw flexion test, described by Kuzuna et al., Chem. Pharm. Bull., 23, 1184-1191 (1975), Winter et al., J. Pharm. Exptl. Therap., 211, 678-685 (1979) and Capetola et al., J. Pharm. Exptl. Therap. 214, 16-23 (1980); and the mouse vas deferens adrenergic transmission test, described by Henderson et al., Brit. J. Pharmacol., 46, 764-766 (1972).
As before, the compounds are identified by the example number above where their preparations are described.

[1] = system: acetylcholine-induced abdominal constriction; assay: acetylcholine-induced abdominal constriction test (ACH); assay type: in vivo, mice; conditions: for ED50: Mus musculus
Excerpt: as §1
(§2) In the acetylcholine-induced abdominal constriction test, the test compounds were administered either as suspensions in gum tragacanth (GT) or as aqueous solutions prepared by addition of just sufficient dilute aqueous methanesulfonic acid (MS) or dilute aqueous lactic acid (LA) to dissolve the compound The compounds are identified by the example number above where their preparations are described All data in the anti-bradykinin, rat writhing and Randall-Selitto tests were obtained on oral administration.

[2] = system: acetic acid-induced writhing; assay: inhibition of acetic acid-induced writhing in the rat (RW); assay type: in vivo, rat (male Sprague Dawley); conditions: oral; for ED50: Rattus norvegicus
Protocol: (§3) In order to further detail the analgesic profiles of the compounds of the invention, their activities in the inhibition of acetic acid-induced writhing assay in the rat, the inhibition of cyclooxygenase assay and a modification of the Randall-Selitto analgesic test were also determined The test procedure used to determine the inhibition of acetic acid-inducedwrithing in the rat is described as follows.
Male Sprague Dawley rats (Taconic Farms) weighing between 160 and 200g were treated in a random and blind fashion with 1% gum tragacanth vehicle or test agent suspended or dissolved in 1% gum tragacanth. Rats were individually housed in plastic cages (28×18×12 cm) throughout the experiment. Forty-five minutes after drug treatment, 0.5 ml of 9% (w/v) acetic acid was administered intraperitoneally, and animals were returned to their cages for 10 minutes. Writhing is not normally seen during this 10 minute period. Each animal was then observed for a writhing response during a subsequent 10 minute interval (55-65 minutes post-drug treatment). A writhing response was defined as arching of the back with extension of the hindlimbs and contraction of abdominal muscles. […] Data were expressed as percent inhibition of the mean number of writhes in the vehicle treated control group. Data were evaluated for statistical significance by Dunnett's test, and ED50 's for inhibition of acetic acid-induced writhing were determined by the graded dose-response analysis of Tallarida and Murray, Manual of Pharmacologic Calculations with Computer Programs, Springer Verlag, New York (1981).
as §2

cyclooxygenase = assay: inhibition of cyclooxygenase assay (CO); assay type: biochemical, mice
Protocol: as §3
The test procedure used to determine cyclooxygenase inhibitory activity is described as follows.
Male mice were decapitated and stomach and brain (cerebral cortex, hypothalamus and medulla) were rapidly dissected over ice. The brains were homogenized in 3 volumes of ice cold 0.1 M potassium phosphate buffer, pH 7.4 containing 10 mM EDTA and 1% BSA (w/v). The homogenate was centrifuged at 10,000 xg for 15 minutes. The resulting supernatant was decanted and centrifuged at 100,000 xg for 60 minutes yielding a crude microsomal pellet. The pellet was washed superficially three times in 3 volumes of 0.1 M potassium phosphate buffer before final resuspension in 1.5 volumes of 0.1 M potassium phosphate buffer containing 1 mM norepinephrine and 1 mM reduced glutathione. The microsomes (50 μl) were preincubated with 50 μl of indomethacin (0.3 μM), test compound or norepinephrine/glutathione-containing buffer for 5 minutes at room temperature. The enzyme reaction was initiated by the addition of 50 μl of ^14 C arachidonic acid to yield a final concentration of 10 μM. After a further incubation of 15 minutes at 37° C., the reaction was stopped by the addition of 50 μl of 4M formic acid. Blank values were determined by using microsomes boiled for 5 minutes but otherwise were treated similarly. The ^14 C-labelled material was extracted 3 times with 0.5 ml of ethyl acetate with intermediate centrifugations at 500 xg for 5 minutes to clarify the aqueous and organic phases. This procedure extracted >95% of the ^14 C-labelled materials. The ethyl acetate washes were added to tubes containing 5 μg each of PGE2, PGF2, PGD2, and 10 μg PGI2 in 25 μl of ethanol. The mixture was evaporated to dryness under nitrogen and the residue dissolved in 150 μl of chloroform:methanol (2:1). This solution was spotted on 5×20 cm silica gel plates and chromatographed with an ethyl acetate, trimethylpentane, acetic acid and water mixture (110:50:20:100 by volume) prepared by shaking the solvents and separating and discarding the organic phase. The prostaglandins were visualized in iodine vapor, the various spots were scraped, and the ^14 C-labelled prostaglandins quantitated by liquid scintillation spectroscopy in 10 ml of BIOFLUOR® or FLUORODYNE®.
as §2

bradykinin = assay: anti-bradykinin test (BDK/BRKD); assay type: in vivo; conditions: oral, dose level 300
Excerpt: as §1, with “(1972). […]” for “(1972).”

[3] = 30 μM, negative values = increases over controls, not demonstrated to differ significantly
[4] = p.o., dose level 100, aqueous methanesulfonic acid (MS)
[5] = p.o., dose level 100, suspension in gum tragacanth (GT)

With Cc1c(C(=O)c2ccc3ncccc3c2)c2cccc3c2n1C(CN1CCOCC1)CO3 (stereo not drawn) [Example 1C] the IC50 (mouse vas deferens) was 21 ± 0.65 nM, the ED50 ([1]; iv) was 1.8 mg/kg and the ED50 ([1]; po, vehicle not given) was 27 mg/kg. For the same molecule, the ACH percent inhibition ([1]; s.c., dose level 100, suspension in gum tragacanth (GT)) was 0%, the ED50 [2] was 3.5 mg/kg and the “CO percent inhibition (% I)” value (cyclooxygenase; [3]) was -26.2%.
Molecule Cc1c(C(=O)c2cccc3ccccc23)c2cccc3c2n1C(CN1CCOCC1)CO3 (stereo not drawn) [1B (base)] has an IC50 (mouse vas deferens) of 4 ± 2 nM.
With CS(=O)(=O)O.Cc1c(C(=O)c2cccc3ccccc23)c2cccc3c2n1C(CN1CCOCC1)CO3 (single isomer, unassigned; (-)) [2B(1), (-)-3-(4-morpholinylmethyl)-5-methyl-6-(1-naphthylcarbonyl)-2,3-dihydropyrrolo[1,2,3-de]-1,4-benzoxazine methanesulfonate] the MVD percent inhibition (mouse vas deferens) was 37%, the IC50 (mouse vas deferens; methanesulfonate) was over 10000 nM and the ACH percent inhibition ([1]; i.v., dose level 0.3) was 20%. The ACH percent inhibition ([1]; i.v., dose level 1) was 40%, the ACH percent inhibition ([1]; i.v., dose level 3) was 10% and the ACH percent inhibition ([1]; i.v., dose level 5.5) was 30%. The ACH percent inhibition ([1]; p.o., dose level 10, aqueous methanesulfonic acid (MS)) was 10%, the ACH percent inhibition ([1]; p.o., dose level 30, aqueous methanesulfonic acid (MS)) was 10% and the ACH percent inhibition [1, 4] was 10%. For the same molecule, the ACH percent inhibition ([1]; p.o., dose level 173, aqueous methanesulfonic acid (MS)) was 30%, the RW percent inhibition ([2]; dose level 100) was 12% and the “CO percent inhibition (% I)” value (cyclooxygenase; 100 μM) was 10.4%.
O=C(c1cccc2ccccc12)c1cn2c3c(cccc13)OCC2CN1CCOCC1 (stereo not drawn) [Example 2F] showed an IC50 (mouse vas deferens) of 2 ± 0.03 nM and an ACH percent inhibition [1, 5] of 10%.
COc1ccc(C(=O)c2cn3c4c(cccc24)OCC3CN2CCOCC2)cc1 (stereo not drawn) [Example 2C, 3-(4-morpholinylmethyl)-6-(4-methoxybenzoyl)-2,3-dihydropyrrolo[1,2,3-de]-1,4-benzoxazine] was tested, and the IC50 (mouse vas deferens) was 44 ± 9.8 nM, the ED50 ([1]; iv) was 3.9 mg/kg and the ACH percent inhibition [1, 5] was 30%. For the same molecule, the “CO percent inhibition (% I)” value (cyclooxygenase; [3]) was -8.9%.
COc1ccc(C(=O)c2c(C)n3c4c(cccc24)OCC3CN2CCOCC2)cc1 (stereo not drawn) [Example 1A, 3-(4-morpholinylmethyl)-5-methyl-6-(4-methoxybenzoyl)-2,3-dihydropyrrolo[1,2,3-de]-1,4-benzoxazine] gave an IC50 (mouse vas deferens) of 123 ± 13 nM, an ED50 ([1]; iv) of 3.4 mg/kg and an ACH percent inhibition [1, 4] of 30%. The ACH percent inhibition [1, 5] was 20%, the RW percent inhibition ([2]; dose level 100) was 50.6% and the RW percent inhibition ([2]; dose level 300) was 23%. The BRKD percent inhibition (bradykinin) was 0% and the “CO percent inhibition (% I)” value (cyclooxygenase; [3]) was 19%.
Cc1c(C(=O)c2cccc3ccccc23)c2cccc3c2n1CC(CN1CCOCC1)O3 (stereo not drawn) [Example 2I, 2-(4-morpholinylmethyl)-5-methyl-6-(1-naphthylcarbonyl-2,3-dihydropyrrolo1,2,3-de]-1,4-benzoxazine] showed an IC50 (mouse vas deferens) of 4 ± 2 nM.
For CCc1c(C(=O)c2ccc(OC)cc2)c2cccc3c2n1C(CN1CCOCC1)CO3 (stereo not drawn) [Example 2A, 3-(4-morpholinylmethyl)-5-ethyl-6-(4-methoxybenzoyl)-2,3-dihydropyrrolo[1,2,3-de]-1,4-benzoxazine], the MVD percent inhibition (mouse vas deferens) was 27%, the IC50 (mouse vas deferens) was over 10000 nM and the ACH percent inhibition [1, 5] was 20%.
Work on COc1ccc(C(=O)c2c(C)n3c4c(cccc24)OCC3CN2CCOCC2)cc1 (single isomer, unassigned; (-)) [2H(1), (-)-3-(4-morpholinylmethyl)-5-methyl-6-(4-methoxybenzoyl) -2,3-dihydropyrrolo[1,2,3-de]-1,4-benzoxazine] yielded an MVD percent inhibition (mouse vas deferens) of 44% and an IC50 (mouse vas deferens) of over 10000 nM.
“(-)-3-(4-morpholinylmethyl)-5-methyl-6-(5,7-dibromonaphthylcarbonyl)-2,3-dihydropyrrolo[1,2,3-de]-1,4-benzoxazine methanesulfonate [Example 1E]” showed an IC50 (mouse vas deferens) of 2620 ± 1700 nM.
COc1ccc(C(=O)c2c(C)n3c4c(cccc24)OCC3CN2CCOCC2)cc1 (single isomer, unassigned; (+)) [2H(d)] showed an IC50 (mouse vas deferens) of 44 ± 13 nM.
CS(=O)(=O)O.Cc1c(C(=O)c2ccccc2F)c2cccc3c2n1C(CN1CCOCC1)CO3 (stereo not drawn) [Example 2D, 3-(4-morpholinylmethyl)-5-methyl-6-(2-fluorobenzoyl)-2,3-dihydropyrrolo[1,2,3-de]-1,4-benzoxazine methanesulfonate] was tested, and the IC50 (mouse vas deferens) was 76 ± 4 nM, the ED50 ([1]; iv) was 2 mg/kg and the ACH percent inhibition [1, 4] was 30%.
With Cc1c(C(=O)c2cccc3ccccc23)c2cccc3c2n1C(CN1CCOCC1)CO3 (single isomer, unassigned; (+)) [2B(d), (+)-3-(4-morpholinylmethyl)-5-methyl-6-(1-naphthylcarbonyl)-2,3-dihydropyrrolo1,2,3-de]-1,4-benzoxazine methanesulfonate] the IC50 (mouse vas deferens) was 0.43 ± 0.1 nM, the ED50 ([1]; iv) was 0.027 mg/kg and the ED50 ([1]; po, aqueous methanesulfonic acid (MS)) was 33 mg/kg. The ED50 [2] was 7.5 mg/kg and the “CO percent inhibition (% I)” value (cyclooxygenase; 100 μM) was 9%.
With Cc1c(C(=O)c2cccc3ccccc23)c2cccc3c2n1C(CN1CCOCC1)CO3 (stereo not drawn) [1B (CH3 SO3 H), 3-(4-morpholinylmethyl)-5-methyl-6-(1-naphthylcarbonyl)-2,3-dihydropyrrolo1,2,3-de]-1,4-benzoxazine methanesulfonate] the IC50 (mouse vas deferens) was 6 ± 0.6 nM.
Cc1c(C(=O)c2cccc3c(Br)cc(Br)cc23)c2cccc3c2n1C(CN1CCOCC1)CO3 (single isomer, unassigned; (+)) [Example 2G, (+)-3-(4-morpholinylmethyl)-5-methyl-6-(5,7-dibromo-1-naphthylcarbonyl)-2,3-dihydropyrrolo[1,2,3-de]-1,4-benzoxazine] showed an IC50 (mouse vas deferens) of 40 ± 5.4 nM.
For CS(=O)(=O)O.Cc1c(C(=O)c2ccc(Br)c3ccccc23)c2cccc3c2n1C(CN1CCOCC1)CO3 (stereo not drawn) [Example 2E, 3-(4-morpholinylmethyl)-5-methyl-6-(4-bromo-1-naphthylcarbonyl)-2,3-dihydropyrrolo[1,2,3-de]-1,4-benzoxazine methanesulfonate], the IC50 (mouse vas deferens) was 2.2 ± 0.2 nM, the ACH percent inhibition ([1]; p.o., dose level 100, aqueous lactic acid (LA)) was 0% and the ACH percent inhibition [1, 5] was 35%.
